In PubChem BioAssay AID608 (Sanford-Burnham Center for Chemical Genomics, 2007):
Active and inactive are the calls of the source. No rule for the calls is given here.

Biological target: Peptidyl-prolyl cis-trans isomerase FKBP1A (Homo sapiens) (UniProt P62942)
Assay: small-molecule binding to FKBP12 – biophysical, NMR detection (AID 608)
Settings: purified FKBP12

Sequence of Peptidyl-prolyl cis-trans isomerase FKBP1A (Homo sapiens) (P62942 whole entry, looked up): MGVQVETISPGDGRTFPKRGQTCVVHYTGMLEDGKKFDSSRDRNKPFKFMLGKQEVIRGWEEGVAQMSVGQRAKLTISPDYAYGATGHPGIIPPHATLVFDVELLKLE

SMILES | Kd
Cc1nc(-c2cnccn2)sc1C(=O)O | > 4 mM (inactive)
Cn1cnnc1SCC(=O)Nc1ccccc1 | > 4 mM (inactive)
O=C1CN(C(=O)CN2CCOCC2)c2ccccc2N1 | > 4 mM (inactive)
CCc1ccc(/C=N/n2cnnc2)cc1 | > 4 mM (inactive)
CCNC(=O)CC1Nc2ccccc2NC1=O (stereo not drawn) | > 4 mM (inactive)
NC(=O)C1CCN(c2ncnc(N)c2[N+](=O)[O-])CC1 | > 4 mM (inactive)
Cc1cc(C)nc(/N=C(/N)Nc2cccc(F)c2)n1 | > 4 mM (inactive)
NCCN=C1NS(=O)(=O)c2ccccc21 | > 4 mM (inactive)
COC(=O)c1c(SC)nc(-c2ccccc2)[nH]c1=O | > 4 mM (inactive)
Cc1ccc(SCC(=O)N2CC(C)OC(C)C2)cc1 (stereo not drawn) | inactive
CNc1nnc(CSc2nc(C)cc(C)n2)s1 | > 4 mM (inactive)
COc1ccc(O)c(-c2cn[nH]c2-c2cccs2)c1 | > 4 mM (inactive)
Cc1ccc(C)n1NC(=O)c1ccco1 | > 4 mM (inactive)
CCn1cnc2sc(C(=O)O)c(C)c2c1=O | > 4 mM (inactive)
Cn1ncc(CO)c1-c1ccccc1 | > 4 mM (inactive)
CCOC(=O)c1csc(C)n1 | > 4 mM (inactive)
CC(=O)OCc1cc(=O)n(C)c(=O)n1C | > 4 mM (inactive)
Cc1n[nH]c(=S)n1-c1ccc(C(=O)O)cc1 | > 4 mM (inactive)
NC1CS(=O)(=O)CC1O (stereo not drawn) | > 4 mM (inactive)
CON(C)C(=O)Nc1ccc(Cl)cc1 | > 4 mM (inactive)
COc1ccc2c(c1)OC1(O)COc3cc(OC)c(OC)cc3C1=C2 (stereo not drawn) | > 4 mM (inactive)
O=C(Nc1ccccc1)N1CCOCC1 | > 4 mM (inactive)
O=C(c1ncc[nH]1)c1ccccc1C(=O)N1CCOCC1 | > 4 mM (inactive)
Cn1ccnc1SCc1cc(=O)[nH]c2ccccc12 | > 4 mM (inactive)

SMILES | Kd
O=C(O)c1ccc(CSc2ncn[nH]2)cc1 | > 4 mM (inactive)
COc1ccc(/C=C2/SC(N)=NC2=O)c(OC)c1 | > 4 mM (inactive)
CC(=O)Nc1ccc(NC(=O)C2CC2)cc1 | > 4 mM (inactive)
COC(=O)c1ccc(NC(=O)CC2NCCNC2=O)cc1 (stereo not drawn) | > 4 mM (inactive)
Cn1c(=O)c2cn3ncccc3c2n(C)c1=O | > 4 mM (inactive)
NC(=O)CN=Cc1c(O)[nH]c2ccccc12 | > 4 mM (inactive)
Cc1cc(C(=O)NCc2cccs2)cs1 | > 4 mM (inactive)
O=C1c2cccnc2C(=O)N1Cc1ccco1 | > 4 mM (inactive)
c1ccc(Cc2nnc3sc(-c4ccncc4)nn23)cc1 | > 4 mM (inactive)
O=C(Nc1nnc(-c2ccco2)o1)C1=COCCO1 | > 4 mM (inactive)
COc1cc(N)ncn1 | > 4 mM (inactive)
Cc1ccc(S(=O)(=O)CC(=O)N(C)C)cc1 | > 4 mM (inactive)
Cn1nnc2cc(C(=O)O)ccc21 | > 4 mM (inactive)
C=CCN1CC[C@]23c4c5ccc(O)c4OC2C(=O)CC[C@@]3(O)[C@H]1C5 (stereo partly drawn) | > 4 mM (inactive)
Cc1nn(-c2ccccc2)nc1CO | > 4 mM (inactive)
Nc1ccc2c(c1)OCO2 | > 4 mM (inactive)
O=C(O)C(CO)c1ccccc1 (stereo not drawn) | > 4 mM (inactive)
NC(=O)c1ccc(-c2ccccn2)s1 | > 4 mM (inactive)
CC(=O)Nc1ccc(NC(=O)c2ccnn2C)cc1 | > 4 mM (inactive)
COC(=O)c1cc2cc(N)ccc2s1 | > 4 mM (inactive)
COc1cc2c3cc1Oc1c(OC)c(OC)cc4c1[C@@H](Cc1cccc(c1)Oc1ccc(c(O)c1)C[C@@H]3N(C)CC2)N(C)CC4 | > 4 mM (inactive)
COc1cc([C@H]2Oc3cc([C@H]4Oc5cc(O)cc(O)c5C(=O)[C@@H]4O)ccc3O[C@@H]2CO)ccc1O | > 4 mM (inactive)
Cc1cc(C)nc(N2CC(=O)N(C)C2=N)n1 | > 4 mM (inactive)
Cc1oc(-c2ccccc2)cc1C(=O)O | > 4 mM (inactive)

SMILES | Kd
CC(=O)c1c(C)nc(C)nc1NC(=O)C(C)C | > 4 mM (inactive)
OCc1snnc1-c1ccccc1 | > 4 mM (inactive)
O=C(O)C1CC(=O)N(C2Cc3ccccc3C2)C1 (stereo not drawn) | > 4 mM (inactive)
Cc1cc(C(=O)N2CCOCC2)c(C)o1 | > 4 mM (inactive)
COn1c(=O)c(-c2ccco2)[n+]([O-])c2ccccc21 | > 4 mM (inactive)
O=c1ccc2c([nH]1)CCCC2 | > 4 mM (inactive)
COc1ccc(-c2cc(=O)c3c(OC(C)=O)cc(OC(C)=O)cc3o2)cc1 | > 4 mM (inactive)
NC(CCC(=O)Nc1ccc([N+](=O)[O-])cc1)C(=O)O (stereo not drawn) | > 4 mM (inactive)
COc1c2c(c(CC=C(C)C)c3oc(=O)c(-c4ccc(O)cc4)c(O)c13)OC(C)(C)C=C2 | > 4 mM (inactive)
CC1(C)C(=O)C=C[C@@]2(C)C1=C(O)C(=O)[C@]1(C)C2CC[C@@]2(C)[C@H](c3ccoc3)C[C@H]3O[C@]321 (stereo partly drawn) | > 4 mM (inactive)
O=S(=O)(Nc1ccc(F)cc1)N1CCOCC1 | > 4 mM (inactive)
Cc1ccccc1NC(=O)c1ocnc1C | > 4 mM (inactive)
Nc1ccccc1C(=O)N1CCNC(=O)C1 | > 4 mM (inactive)
NC(=O)CC1NC(=O)c2ccccc21 (stereo not drawn) | > 4 mM (inactive)
CN(C)c1nc(N)nc(-c2nc3ccccc3s2)n1 | > 4 mM (inactive)
CC(=O)NCC1(c2ccccc2)CCOCC1 | > 4 mM (inactive)
NC(=O)c1c[nH]c2ccccc12 | > 4 mM (inactive)
O=C(CSc1ccc2ccccc2c1)N1CCOCC1 | 0.18 mM
OCc1ccc(-c2ccccn2)s1 | > 4 mM (inactive)
Nc1cc(=O)[nH]c(=S)n1-c1ccc(F)cc1 | > 4 mM (inactive)
CCCn1c(S(=O)(=O)O)nc2ccccc21 | > 4 mM (inactive)
Nc1ccc(-c2csnn2)cc1 | > 4 mM (inactive)
CC(=O)c1cnc2nc(C(F)(F)F)nn2c1C | > 4 mM (inactive)
Clc1ccc2c(N3CCNCC3)ccnc2c1 | > 4 mM (inactive)

SMILES | Kd
CC1CCC(N2CCN(c3ncccn3)CC2)CC1 (stereo not drawn) | > 4 mM (inactive)
C/C(=C\CO)CC[C@H](C)CCC[C@H](C)CCCC(C)C | > 4 mM (inactive)
O=C(Cn1c(-c2cscn2)nc2ccccc21)Nc1ccccc1F | > 13.6 mM (inactive)
CC1(C)CC2C1CCC1(C)OC1CCC2(C)O (stereo not drawn) | > 4 mM (inactive)
Cc1occc1C(=O)Nc1ccc2c(c1)OCO2 | > 4 mM (inactive)
COC(=O)c1cn(C(=O)OC)c2ccccc12 | > 4 mM (inactive)
COC(=O)c1c(C)cc(OC)cc1O | > 4 mM (inactive)
CC(=O)c1cccc(NC(=O)N2CCc3ccccc3C2)c1 | > 4 mM (inactive)
COc1cc2c(cc1-c1cc3cc4ccoc4cc3oc1=O)OCO2 | > 4 mM (inactive)
CN1CCN(CC(O)c2ccccc2)CC1 (stereo not drawn) | > 4 mM (inactive)
Cc1cc(C)n(-c2ccc(N)cc2)n1 | > 4 mM (inactive)
CC(=O)Nc1ccc(Oc2nc(C)cc(C)n2)cc1 | > 4 mM (inactive)
Cc1cc(=O)[nH]c2ccccc12 | > 4 mM (inactive)
CC(=O)Nc1ccc(N(C)C(C)=O)cc1 | > 4 mM (inactive)
O=C(Nc1ccon1)c1cccc(Cl)c1 | > 4 mM (inactive)
COC(=O)c1cc2ccccc2cn1 | > 4 mM (inactive)
CCn1nnc2c(NCc3ccccn3)ncnc21 | > 4 mM (inactive)
O=C1Cn2c(nc3ccccc32)N1c1ccccc1F | > 4 mM (inactive)
C=C(C)C1Cc2c(ccc(C(=O)O)c2O)O1 (stereo not drawn) | > 4 mM (inactive)
COc1ccc(-c2nc3nc(C)cc(C)n3n2)cc1 | > 4 mM (inactive)
Cc1cc(C)n(S(=O)(=O)c2ccc(C(C)(C)C)cc2)n1 | > 4 mM (inactive)
COc1ccc2c(Cl)c(C(=O)N3CC(C)OC(C)C3)sc2c1 (stereo not drawn) | > 13.6 mM (inactive)
Oc1cc(O)c2c(c1)O[C@H](c1ccc(O)c(O)c1)[C@@H](O)C2 | > 4 mM (inactive)
Cc1cc(NC(=O)c2ocnc2C)no1 | > 4 mM (inactive)

SMILES | Kd
C=C1CCC(C2CC(=O)OC2=O)C(=O)CCC2C1CC2(C)C (stereo not drawn) | > 4 mM (inactive)
Clc1ccc(-c2noc(CN3CCCC3)n2)cc1 | > 4 mM (inactive)
COCC(=O)Nc1c(C(N)=O)oc2ccccc12 | > 4 mM (inactive)
O=C(CSc1ncn[nH]1)c1ccc2c(c1)OCO2 | > 4 mM (inactive)
Cc1ccc(NC(=O)CC2NCCNC2=O)c(C)c1 (stereo not drawn) | > 4 mM (inactive)
COC(=O)C(O)[C@@H]1C2(C)C(=O)[C@@H](CC3=C4CC(=O)O[C@@H](c5ccoc5)[C@]4(C)CCC32)[C@H](OC(C)=O)C1(C)C (stereo partly drawn) | > 4 mM (inactive)
CC(=O)c1cc(C)ccc1O | > 4 mM (inactive)
CC(=O)c1c(O)c(C)c(O)c2c1OC1=CC(=O)C(C(C)=O)C(=O)C12C (stereo not drawn) | > 4 mM (inactive)
Cn1c(=O)n(C)c2nc([N+](=O)[O-])c(Cl)cc21 | > 4 mM (inactive)
COc1ccc(-c2ccc(OC)cc2C(=O)O)cc1 | > 4 mM (inactive)
O=C(O)c1ccc2c(c1)OCCCO2 | > 4 mM (inactive)
CCC(C)C(=O)O[C@@H]1C[C@@]2(C)[C@H](c3ccoc3)OC(=O)CC23OC2(C)O[C@]14[C@]1(C)[C@@H](CC(=O)OC)C5(C)CC1(O)[C@](O)(C5OC(=O)C1(C)OC1C)[C@@H](OC(C)=O)[C@]34O2 (stereo partly drawn) | > 4 mM (inactive)
Nc1nc(-c2ccc(F)c(F)c2)cs1 | > 4 mM (inactive)
Nc1[nH]c(=S)[nH]c(=O)c1-c1ccccc1 | > 4 mM (inactive)
CS(=O)(=O)Cc1ccccc1 | > 4 mM (inactive)
O=c1cc(-c2ccccc2)oc2cc(O)c(O)c(O)c12 | > 4 mM (inactive)
CC(=O)NC(O)C(=O)c1cccs1 (stereo not drawn) | > 4 mM (inactive)
O=c1c2c(nc3nc(Cc4ccccc4)[nH]n13)CCC2 | > 4 mM (inactive)
CC1CC[C@]2(NC1)O[C@H]1CC3C4CC[C@H]5C[C@@H](O)CC[C@]5(C)C4CC[C@]3(C)[C@H]1[C@@H]2C (stereo partly drawn) | > 4 mM (inactive)
CC1(C)NCCN2C(=O)CSC21 (stereo not drawn) | > 4 mM (inactive)
O=C(Oc1ccc2c(c1)OCC2=O)c1ccccc1 | > 4 mM (inactive)
Cc1cc(-c2ccc(Cl)cc2)n2nc(N)nc2n1 | > 4 mM (inactive)
